Data: patent US9249116B2, “Enzyme-activating compounds and compositions” (The Board of Trustees of the University of Illinois, priority 2012, dated 2016)

What was measured:
[1] = Liver microsome stability assay; assay type: in vitro ADME; settings: rat liver microsomes, 10 μM, LC/MS
Protocol: FIG. 4. Liver Microsome Stability Assay. Compounds (10 μM) incubated with liver microsomes for 3 h and quenched with MeCN containing internal standard, analyzed by LC/MS (280 nm). Next, the metabolic stability of the compounds was evaluated in rat liver microsomes. The compounds were evaluated for 3 hours at 10 μM, and the metabolites were observed by LC/MS.

mice = assay: Assessment of toxicity in vivo; settings: mouse, in vivo
Description: The level of toxicity was rated on a scale of 0 (no observable adverse effect) to 3 (severe toxicity, almost fatal).

[2] = tested on: U-937 cells (human lymphoma); assay: 72 Hour IC50 cell death assay (sulforhodamine B); assay type: cell-based; settings: U-937, 72 h, read-out: U-937 72 h IC50 (μM)
Protocol: After the synthesis was complete, the biological activity of the compounds was evaluated.
U-937 human lymphoma cells were plated into the wells of 96 well plate at a density of 15,000 cells per well in 99 μL of RPMI 1640 growth media with 10% FBS and 1% pen-strep. To each well was added 1 μL of compound stock solutions in DMSO at varying concentrations such that the cells were treated with concentrations between 0 μM and 100 μM compound. Each concentration was tested in quintuplicate per plate. In each plate 5 wells received 20 μM doxorubicin as a positive death control and 5 wells received 1 μL of DMSO as a negative control.
After the 72 hour incubation period, the plates were analyzed using a Sulforhodamine B assay (Vichai and Kirtikara, Nat Protoc 2006, 1, 1112-1116). Specifically, to each well of the plate 25 μL of a 50% (w/v) solution of trichloroacetic acid in H2O was added and the plates were incubated for 4 hours at 4° C. The plates were then washed gently with water five times. The plates were allowed to air dry after which 100 μL of a 0.057% (w/v) Sulforhodamine B in a 1% (v/v) acetic acid solution was added to each well for 30 minutes at room temperature. The plates were gently washed 5 times with 1% (v/v) acetic acid and air dried. 200 μL of 10 mM Tris base (pH 10.4) was added to each well and the plates were placed on an orbital shaker for thirty minutes. The level of SRB was quantified fluorometrically at excitation and emission wavelengths 488 and 585 nm, respectively, on a Molecular Devices plate reader and the percent cell death calculated and normalized to the positive control (100% cell death) and the negative control (0% cell death). The percent cell death was averaged for each compound concentration and plotted as a function of compound concentration. The data were fit to a logistical dose response curve using Table curve 2D and the IC50 value was calculated. The experiment was repeated three times and the average of the calculated IC50 values was reported. The standard error of the mean (SEM) was determined and reported for the triplicate experiments.

procaspase-3 = target: T1, procaspase-3 (Homo sapiens, UniProt P42574); assay: Procaspase-3 activity assay (relief of zinc-mediated inhibition, Ac-DEVD-pNA cleavage); assay type: biochemical; settings: procaspase-3 incubated with […] ZnSO4; method gives compounds at 25 μM
T1 construct: 6xHis (C); made in house; host or cells: Rosetta E. coli
T1 sequence (P42574 1-277): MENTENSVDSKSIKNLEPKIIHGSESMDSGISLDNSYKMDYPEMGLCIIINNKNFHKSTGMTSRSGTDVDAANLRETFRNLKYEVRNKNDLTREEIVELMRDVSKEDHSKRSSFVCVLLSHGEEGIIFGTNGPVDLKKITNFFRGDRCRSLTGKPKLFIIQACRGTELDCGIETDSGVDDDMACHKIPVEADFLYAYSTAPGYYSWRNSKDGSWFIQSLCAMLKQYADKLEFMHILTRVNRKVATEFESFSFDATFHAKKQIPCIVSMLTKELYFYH
Protocol: The six confirmed hits were then evaluated in vitro for their ability to relieve zinc-mediated inhibition of procaspase-3 (Table A). In this experiment, procaspase-3 was incubated with ZnSO4, conditions in which procaspase-3 has no enzymatic activity.
Techniques adapted from Hergenrother and coworkers (Putt et al., Nat Chem Biol 2006, 2, 543-550). A 20 mL volume of an overnight culture of Rosetta E. coli containing the procaspase-3 (wild-type) expression plasmid was seeded into 2 L of LB media containing ampicillin. The culture was grown to an OD600=1.0, at which point protein expression was induced via addition of IPTG (to 1 mM); the culture was allowed to grow for 30 additional minutes. Cells were then harvested (10 minute spins at 10,000×g and re-suspended in NTA binding buffer (300 mM NaCl, 50 mM Tris, 10 mM imidazole, pH 8.0). The cells were lysed on ice via sonication. The cell lysate was then spun at 35,000×g for […] The supernatant was decanted and 1 mL of nickel-NTA resin was added. The cell lysate was incubated for 45 minutes at 4° C. The resin was loaded on a column, washed with 10 mL NTA binding buffer followed by 10 mL NTA wash buffer (300 mM NaCl, 50 mM Tris, 50 mM imidazole, pH 8.0). The proteins were eluted in 0.5 mL fractions with 10 mL of NTA elution buffer (300 mM NaCl, 50 mM Tris, 500 mM imidazole, pH 8.0). Fractions containing protein were pooled and further purified to remove any contaminating zinc by applying the protein to a PD-10 column (GE Healthcare) charged with Caspase Activity Buffer that had been treated with Chelex® resin. The resulting concentration was determined using the Edelhoch method and the molar absorptivity of procaspase-3 of 26150 M^−1 cm^−1. Protein stocks were flash-frozen in liquid nitrogen and stored at −80° C.
In a 384-well plate recombinantly expressed, zinc-free procaspase-3 (wild type, at 1 μM) in Caspase Activity Buffer (50 mM HEPES, 300 mM NaCl, 1.5 mM TCEP, 0.01% TritonX-100) was incubated at 37° C. in the presence of 3.5 μM ZnSO4 and the basal activity was assessed via the addition of Ac-DEVD-pNA (final concentration in well of 200 μM). The absorbance at 405 nm was monitored with a SpectraMax plate reader (Molecular Devices). […] Activity of each treatment was assessed at 5, 20, 40 and 60 minutes via 5-minute kinetic reads. The slope of each data set was used to determine the activity of the protein. Activity was normalized to a percent activity at each time point using a zinc-free sample and a zinc-inhibited sample treated with DMSO.

Compound | RLM 3 h % Stability [1] | Mouse Toxicity (mice) | IC50 [2] | Procaspase-3 (% Activity at […]) (procaspase-3) | RLM 3 h % Stability ([1]; listed as 2 (S-PAC-1))
C=CCc1cccc(/C=N/NC(=O)CN2CCN(Cc3ccccc3)CC2)c1O [PAC-1, Procaspase-Activating Compound 1, reference compound] | 38 ± 2% | 3 | 10.2 ± 0.3 µM | 42 ± 1.8% | 
C=CCc1cccc(/C=N/NC(=O)CN2CCN(Cc3ccc(S(N)(=O)=O)cc3)CC2)c1O [S-PAC-1, reference compound] | reasonably stable |  |  | 4 ± 0.6% | 84 ± 0%
CC(C)(C)c1cc(/C=N/NC(=O)CN2CCN(Cc3ccc4ccccc4c3)CC2)c(O)c(C(C)(C)C)c1 [3{25,7}] |  |  |  | 69 ± 5.3% | 
